Assay results as given in patent publication US6720346B2, “Thiazole benzamide derivatives and pharmaceutical compositions for inhibiting cell proliferation” (Agouron Pharmaceuticals, Inc., priority 2001, dated 2004).

Columns and labels:
HCT-116 cell line = assay: Inhibition of cell growth, MTT tetrazolium salt assay; format: cell-based; conditions: HCT-116 cells; for HCT-116 % Inhibition at 0.1 μM: 0.1 μM compound; for HCT-116 % Inhibition at 0.25 μM: 0.25 μM compound
In short: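 HCT-116 cells in McCoy's 5A were dosed 4 h after plating with compounds in 0.5% DMSO and grown 3–5 days at 37 °C. Then 0.2 mg/mL MTT was added for 4 h and formazan absorbance read at 540 nm. IC50/IC90 came from semi-log plots against DMSO-only controls.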

CDK2/cyclin A = target: T1, CDK2/cyclin A (Homo sapiens, UniProt P24941); assay: Inhibition of CDK2/cyclin A retinoblastoma kinase activity (Ki; % inhibition); format: biochemical; conditions: 0.03 μM compound
T1 construct: made in house; host or cells: CDK2: insect cells (baculovirus); cyclin A: E. coli
In short: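 Apparent Ki values came from fitting concentration-dependent activity data to competitive (or competitive tight-binding) models, and % inhibition from single 30 nM screens of library compounds. Activity was measured as ³²P/³³P incorporation from 25 μM ATP into an Rb substrate by 10 or 19 nM CDK2/delta cyclin A at 30 °C over 60–75 min, pH 7.4.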

human CDK4/cyclin D3 = target: T2, human CDK4/cyclin D3 (Homo sapiens, UniProt P11802); assay: Inhibition of CDK4/cyclin D retinoblastoma kinase activity (Ki; % inhibition); format: biochemical; conditions: 0.03 μM compound
T2 construct: made in house; host or cells: insect cells co-infected with baculovirus vectors
In short: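 Radiometric filter-binding read-out: Rb residues 386-928 phosphorylated by 5 nM CDK4/cyclin D3(1-264) from baculovirus-infected insect cells, 25 μM ATP, HEPES pH 7.4, 30 °C. Run 20 min, or 60 min for tight-binding inhibitors. Screening at 30 nM theoretical compound; apparent Ki by competitive-inhibition fitting.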

T2 sequence (P11802 whole entry): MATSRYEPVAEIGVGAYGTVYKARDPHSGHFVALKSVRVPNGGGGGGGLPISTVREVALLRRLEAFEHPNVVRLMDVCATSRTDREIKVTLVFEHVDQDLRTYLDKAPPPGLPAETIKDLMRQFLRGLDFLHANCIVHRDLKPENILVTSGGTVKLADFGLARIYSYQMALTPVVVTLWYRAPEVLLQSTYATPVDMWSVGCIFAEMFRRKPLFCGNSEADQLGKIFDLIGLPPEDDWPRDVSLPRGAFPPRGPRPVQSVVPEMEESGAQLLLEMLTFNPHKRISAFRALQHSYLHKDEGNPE
T2 sequence (P30281 1-264 partner limits assumed): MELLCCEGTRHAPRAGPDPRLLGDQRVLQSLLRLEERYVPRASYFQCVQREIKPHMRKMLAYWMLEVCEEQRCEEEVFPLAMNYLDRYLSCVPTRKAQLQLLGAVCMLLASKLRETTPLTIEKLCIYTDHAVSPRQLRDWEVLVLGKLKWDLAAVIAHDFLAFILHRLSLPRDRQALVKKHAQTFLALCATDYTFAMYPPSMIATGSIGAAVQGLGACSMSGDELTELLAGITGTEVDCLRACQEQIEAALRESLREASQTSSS

Compound	HCT-116 % Inhibition at 0.1 μM (HCT-116 cell line) [%]	HCT-116 % Inhibition at 0.25 μM (HCT-116 cell line) [%]	CDK2 % Inhibition at 0.03 μM (CDK2/cyclin A) [%]	CDK4 % Inhibition at 0.03 μM (human CDK4/cyclin D3) [%]
CCN(CC)CCCN(C)C(=O)c1ccc(Nc2nc(N)c(C(=O)c3c(F)cccc3F)s2)cc1 [Example G260]	30	59	−27	1
Nc1nc(Nc2ccc(C(=O)NCc3ccc(C(F)(F)F)cc3)cc2)sc1C(=O)c1c(F)cccc1F [Example G261]	26	69	30	27
COc1cc(CNC(=O)c2ccc(Nc3nc(N)c(C(=O)c4c(F)cccc4F)s3)cc2)cc(OC)c1 [Example G262]	24	59	1	28
CC(C)(CO)CNC(=O)c1ccc(Nc2nc(N)c(C(=O)c3c(F)cccc3F)s2)cc1 [Example G263]	26	54	2	24
Nc1nc(Nc2ccc(C(=O)NCCOCCO)cc2)sc1C(=O)c1c(F)cccc1F [Example G264]	22	53	−9	13
Nc1nc(Nc2ccc(C(=O)N3CCCCC3CCO)cc2)sc1C(=O)c1c(F)cccc1F (stereo not shown) [Example G265]	21	48	−24	1
Nc1nc(Nc2ccc(C(=O)NCCc3ccc(Cl)cc3)cc2)sc1C(=O)c1c(F)cccc1F [Example G266]	28	30	0	7
CC(C)(C)C1CCC(NC(=O)c2ccc(Nc3nc(N)c(C(=O)c4c(F)cccc4F)s3)cc2)CC1 (stereo not shown) [Example G267]	24	44	−23	−14
Nc1nc(Nc2ccc(C(=O)NCCc3ccncc3)cc2)sc1C(=O)c1c(F)cccc1F [Example G268]	26	63	−11	2
Nc1nc(Nc2ccc(C(=O)NCc3ccccc3C(F)(F)F)cc2)sc1C(=O)c1c(F)cccc1F [Example G269]	19	65	6	2
CC(C)(C)c1ccc(CNC(=O)c2ccc(Nc3nc(N)c(C(=O)c4c(F)cccc4F)s3)cc2)cc1 [Example G270]	15	45	26	17
Nc1nc(Nc2ccc(C(=O)NCCc3c[nH]c4ccccc34)cc2)sc1C(=O)c1c(F)cccc1F [Example G271]	8	49	32	27
C=CCN(CC=C)C(=O)c1ccc(Nc2nc(N)c(C(=O)c3c(F)cccc3F)s2)cc1 [Example G272]	10	47	−20	0
CC1CC(C)CN(C(=O)c2ccc(Nc3nc(N)c(C(=O)c4c(F)cccc4F)s3)cc2)C1 (stereo not shown) [Example G273]	17	45	−33	−2
Nc1nc(Nc2ccc(C(=O)NCCCCCO)cc2)sc1C(=O)c1c(F)cccc1F [Example G274]	15	47	−4	5
Cc1ccc(CNC(=O)c2ccc(Nc3nc(N)c(C(=O)c4c(F)cccc4F)s3)cc2)cc1Cl [Example G275]	25	63	27	19
Nc1nc(Nc2ccc(C(=O)NCCc3cccc(C(F)(F)F)c3)cc2)sc1C(=O)c1c(F)cccc1F [Example G276]	25	58	2	−2
Nc1nc(Nc2ccc(C(=O)NCc3ccncc3)cc2)sc1C(=O)c1c(F)cccc1F [Example G277]	11	56	8	26
Nc1nc(Nc2ccc(C(=O)NCc3ccc(F)cc3Cl)cc2)sc1C(=O)c1c(F)cccc1F [Example G278]	6	76	25	27
Nc1nc(Nc2ccc(C(=O)NCC(O)CO)cc2)sc1C(=O)c1c(F)cccc1F (stereo not shown) [Example G279]	2	52	−2	17
Cc1cccc(NC(=O)c2ccc(Nc3nc(N)c(C(=O)c4c(F)cccc4F)s3)cc2)c1 [Example G280]	7	70	−7	9
Nc1nc(Nc2ccc(C(=O)Nc3ccc(Cl)nc3)cc2)sc1C(=O)c1c(F)cccc1F [Example G281]	6	63	−9	12
C#CCN(C)C(=O)c1ccc(Nc2nc(N)c(C(=O)c3c(F)cccc3F)s2)cc1 [Example G282]	1	56	−14	6
CCSCCNC(=O)c1ccc(Nc2nc(N)c(C(=O)c3c(F)cccc3F)s2)cc1 [Example G283]	16	75	−6	10
Cc1ccc(NC(=O)c2ccc(Nc3nc(N)c(C(=O)c4c(F)cccc4F)s3)cc2)c(F)c1 [Example G284]	4	69	−30	−12
CCOc1ccccc1CNC(=O)c1ccc(Nc2nc(N)c(C(=O)c3c(F)cccc3F)s2)cc1 [Example G285]	1	60	13	18
Nc1nc(Nc2ccc(C(=O)NCc3cc(Cl)ccc3Cl)cc2)sc1C(=O)c1c(F)cccc1F [Example G286]	10	60	23	25
Nc1nc(Nc2ccc(C(=O)Nc3cccc(Br)c3)cc2)sc1C(=O)c1c(F)cccc1F [Example G287]	9	32	−8	7
